Assay results as given in ChEMBL document CHEMBL4507280 (2021).

What was measured:
Conditions in all cases: Compound concentration 1000.0 nM
[1] = molecular target: Cyclin-dependent kinase 16 (Homo sapiens) (UniProt Q00536)
[2] = molecular target: Serine/threonine-protein kinase STK11 (Homo sapiens) (UniProt Q15831)
[3] = molecular target: Ephrin type-B receptor 3 (Homo sapiens) (UniProt P54753)
[4] = molecular target: Cyclin-dependent kinase 3 (Homo sapiens) (UniProt Q00526)
[5] = molecular target: Activin receptor type-2B (Homo sapiens) (UniProt Q13705)
[6] = molecular target: Mitotic checkpoint serine/threonine-protein kinase BUB1 (Homo sapiens) (UniProt O43683)
[7] = molecular target: Rho-associated protein kinase 1 (Homo sapiens) (UniProt Q13464)
[8] = molecular target: Protein-tyrosine kinase 2-beta (Homo sapiens) (UniProt Q14289)
[9] = molecular target: Phosphatidylinositol 4,5-bisphosphate 3-kinase catalytic subunit delta isoform (Homo sapiens) (UniProt O00329)
[10] = molecular target: Cyclin-dependent kinase 19 (Homo sapiens) (UniProt Q9BWU1)
[11] = molecular target: Calcium/calmodulin-dependent protein kinase type 1G (Homo sapiens) (UniProt Q96NX5)
[12] = molecular target: Serine/threonine-protein kinase 25 (Homo sapiens) (UniProt O00506)
[13] = molecular target: Insulin receptor-related protein (Homo sapiens) (UniProt P14616)
[14] = molecular target: Phosphatidylinositol 5-phosphate 4-kinase type-2 beta (Homo sapiens) (UniProt P78356)
[15] = molecular target: Homeodomain-interacting protein kinase 1 (Homo sapiens) (UniProt Q86Z02)
[16] = molecular target: Serine/threonine-protein kinase 32A (Homo sapiens) (UniProt Q8WU08)
[17] = molecular target: Aurora kinase A (Homo sapiens) (UniProt O14965)
[18] = molecular target: Serine/threonine-protein kinase 4 (Homo sapiens) (UniProt Q13043)
[19] = molecular target: MAP kinase-interacting serine/threonine-protein kinase 2 (Homo sapiens) (UniProt Q9HBH9)
[20] = molecular target: Dual specificity protein kinase TTK (Homo sapiens) (UniProt P33981)
[21] = molecular target: MAP kinase-activated protein kinase 2 (Homo sapiens) (UniProt P49137)
[22] = molecular target: Serine/threonine-protein kinase Nek7 (Homo sapiens) (UniProt Q8TDX7)
[23] = system: Phosphatidylinositol 4,5-bisphosphate 3-kinase catalytic subunit alpha isoform (Homo sapiens), P42336 [E545A]
[24] = molecular target: SRSF protein kinase 3 (Homo sapiens) (UniProt Q9UPE1)
[25] = molecular target: Tyrosine-protein kinase JAK1 (Homo sapiens) (UniProt P23458)
[26] = molecular target: Cyclin-dependent kinase 14 (Homo sapiens) (UniProt O94921)
[27] = molecular target: Phosphatidylinositol 5-phosphate 4-kinase type-2 gamma (Homo sapiens) (UniProt Q8TBX8)
[28] = molecular target: Hormonally up-regulated neu tumor-associated kinase (Homo sapiens) (UniProt P57058)
[29] = molecular target: Bone morphogenetic protein receptor type-1A (Homo sapiens) (UniProt P36894)
[30] = molecular target: Serine/threonine-protein kinase TAO2 (Homo sapiens) (UniProt Q9UL54)
[31] = molecular target: Ephrin type-A receptor 3 (Homo sapiens) (UniProt P29320)
[32] = molecular target: Serine/threonine-protein kinase Nek9 (Homo sapiens) (UniProt Q8TD19)
[33] = system: Tyrosine-protein kinase ABL1 (Homo sapiens), P00519 [F317L]
[34] = molecular target: Phosphorylase b kinase regulatory subunit alpha, liver isoform (Homo sapiens) (UniProt P46019)
[35] = molecular target: Serine/threonine-protein kinase PAK 1 (Homo sapiens) (UniProt Q13153)
[36] = system: Mast/stem cell growth factor receptor Kit (Homo sapiens), P10721 [V559D]
[37] = system: Receptor-type tyrosine-protein kinase FLT3 (Homo sapiens), P36888 [N841I]
[38] = molecular target: Mitogen-activated protein kinase kinase kinase 4 (Homo sapiens) (UniProt Q9Y6R4)
[39] = molecular target: Cyclin-dependent kinase 17 (Homo sapiens) (UniProt Q00537)
[40] = molecular target: Receptor-type tyrosine-protein kinase FLT3 (Homo sapiens) (UniProt P36888)
[41] = molecular target: cAMP-dependent protein kinase catalytic subunit alpha (Homo sapiens) (UniProt P17612)
[42] = molecular target: Protein kinase C theta type (Homo sapiens) (UniProt Q04759)
[43] = molecular target: Mitogen-activated protein kinase 10 (Homo sapiens) (UniProt P53779)
[44] = molecular target: Serine/threonine-protein kinase MAK (Homo sapiens) (UniProt P20794)
[45] = molecular target: Serine/threonine-protein kinase PAK 4 (Homo sapiens) (UniProt O96013)

Sequence of Dual specificity protein kinase TTK (Homo sapiens) (P33981 whole entry): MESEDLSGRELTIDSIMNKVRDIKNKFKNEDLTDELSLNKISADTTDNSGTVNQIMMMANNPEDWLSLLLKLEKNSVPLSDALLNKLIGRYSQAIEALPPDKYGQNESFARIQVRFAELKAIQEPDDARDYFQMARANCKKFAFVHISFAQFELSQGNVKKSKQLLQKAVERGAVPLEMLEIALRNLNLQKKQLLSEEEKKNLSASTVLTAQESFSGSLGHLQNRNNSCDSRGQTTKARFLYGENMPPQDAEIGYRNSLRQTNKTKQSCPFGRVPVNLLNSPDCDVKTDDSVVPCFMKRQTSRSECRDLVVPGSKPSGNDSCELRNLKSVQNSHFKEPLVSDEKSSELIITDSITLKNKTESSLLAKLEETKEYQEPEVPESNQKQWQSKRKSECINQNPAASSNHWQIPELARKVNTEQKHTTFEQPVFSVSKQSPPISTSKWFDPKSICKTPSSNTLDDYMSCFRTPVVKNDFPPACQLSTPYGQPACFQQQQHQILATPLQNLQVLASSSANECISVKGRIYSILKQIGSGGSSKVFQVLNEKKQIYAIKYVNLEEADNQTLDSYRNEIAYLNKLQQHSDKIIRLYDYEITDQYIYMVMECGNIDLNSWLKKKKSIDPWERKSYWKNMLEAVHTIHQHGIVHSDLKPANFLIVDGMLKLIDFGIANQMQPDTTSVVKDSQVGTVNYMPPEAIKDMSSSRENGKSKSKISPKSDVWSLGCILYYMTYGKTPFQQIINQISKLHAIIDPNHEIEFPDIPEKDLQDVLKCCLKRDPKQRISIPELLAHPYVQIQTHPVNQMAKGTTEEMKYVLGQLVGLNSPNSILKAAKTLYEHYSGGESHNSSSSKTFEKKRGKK
Sequence of Serine/threonine-protein kinase PAK 1 (Homo sapiens) (Q13153 whole entry): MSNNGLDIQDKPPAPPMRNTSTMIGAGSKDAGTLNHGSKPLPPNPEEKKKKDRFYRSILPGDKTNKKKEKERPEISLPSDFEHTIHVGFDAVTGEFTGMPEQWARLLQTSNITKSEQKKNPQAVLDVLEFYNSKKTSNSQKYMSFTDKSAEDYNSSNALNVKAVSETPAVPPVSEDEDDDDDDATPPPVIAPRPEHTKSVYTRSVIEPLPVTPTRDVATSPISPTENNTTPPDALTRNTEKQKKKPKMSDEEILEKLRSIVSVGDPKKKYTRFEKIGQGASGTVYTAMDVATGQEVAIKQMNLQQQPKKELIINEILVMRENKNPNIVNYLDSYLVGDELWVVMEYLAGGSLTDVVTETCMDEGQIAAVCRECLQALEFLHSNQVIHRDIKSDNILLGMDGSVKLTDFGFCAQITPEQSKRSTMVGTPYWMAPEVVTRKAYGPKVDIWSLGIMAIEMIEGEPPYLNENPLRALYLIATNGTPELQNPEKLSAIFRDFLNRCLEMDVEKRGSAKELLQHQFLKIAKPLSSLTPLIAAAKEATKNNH
Sequence of Cyclin-dependent kinase 14 (Homo sapiens) (O94921 whole entry): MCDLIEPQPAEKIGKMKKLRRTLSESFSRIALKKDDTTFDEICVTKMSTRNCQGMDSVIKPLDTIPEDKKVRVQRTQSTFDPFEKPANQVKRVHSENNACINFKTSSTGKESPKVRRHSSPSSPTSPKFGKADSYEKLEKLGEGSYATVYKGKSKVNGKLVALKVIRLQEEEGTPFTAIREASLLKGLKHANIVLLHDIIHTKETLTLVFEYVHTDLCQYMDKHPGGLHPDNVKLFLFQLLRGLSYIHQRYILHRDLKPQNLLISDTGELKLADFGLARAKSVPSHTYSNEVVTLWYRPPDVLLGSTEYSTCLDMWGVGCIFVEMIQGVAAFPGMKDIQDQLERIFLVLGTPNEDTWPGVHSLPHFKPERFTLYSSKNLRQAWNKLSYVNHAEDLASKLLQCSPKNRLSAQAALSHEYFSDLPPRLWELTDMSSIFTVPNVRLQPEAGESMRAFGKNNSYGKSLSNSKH
Sequence of Mast/stem cell growth factor receptor Kit (Homo sapiens), P10721 [V559D] (P10721 whole entry V559D): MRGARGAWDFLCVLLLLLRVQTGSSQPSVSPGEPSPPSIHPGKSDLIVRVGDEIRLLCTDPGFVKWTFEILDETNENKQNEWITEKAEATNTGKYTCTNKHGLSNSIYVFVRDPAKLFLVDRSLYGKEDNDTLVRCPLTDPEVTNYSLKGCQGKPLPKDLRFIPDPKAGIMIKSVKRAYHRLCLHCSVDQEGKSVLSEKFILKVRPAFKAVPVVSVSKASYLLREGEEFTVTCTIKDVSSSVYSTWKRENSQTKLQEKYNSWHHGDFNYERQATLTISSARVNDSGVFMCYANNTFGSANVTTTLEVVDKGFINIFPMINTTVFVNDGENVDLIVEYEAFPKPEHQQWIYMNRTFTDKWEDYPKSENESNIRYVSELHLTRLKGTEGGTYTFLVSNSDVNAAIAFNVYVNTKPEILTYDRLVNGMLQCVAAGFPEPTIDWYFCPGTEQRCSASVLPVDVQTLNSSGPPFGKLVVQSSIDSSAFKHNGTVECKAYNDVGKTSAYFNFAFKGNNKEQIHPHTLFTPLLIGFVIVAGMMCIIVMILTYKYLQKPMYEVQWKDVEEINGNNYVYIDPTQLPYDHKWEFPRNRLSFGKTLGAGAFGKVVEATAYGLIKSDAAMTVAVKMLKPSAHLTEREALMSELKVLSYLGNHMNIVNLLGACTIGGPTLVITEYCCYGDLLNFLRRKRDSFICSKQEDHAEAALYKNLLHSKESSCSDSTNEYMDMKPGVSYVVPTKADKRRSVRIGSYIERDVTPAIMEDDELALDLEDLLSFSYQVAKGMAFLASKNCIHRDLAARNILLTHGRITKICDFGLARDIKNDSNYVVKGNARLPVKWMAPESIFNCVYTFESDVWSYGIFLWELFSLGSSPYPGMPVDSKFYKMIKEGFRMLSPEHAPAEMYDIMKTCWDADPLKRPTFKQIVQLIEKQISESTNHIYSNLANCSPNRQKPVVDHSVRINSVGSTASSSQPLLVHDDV
Sequence of Mitotic checkpoint serine/threonine-protein kinase BUB1 (Homo sapiens) (O43683 whole entry, looked up): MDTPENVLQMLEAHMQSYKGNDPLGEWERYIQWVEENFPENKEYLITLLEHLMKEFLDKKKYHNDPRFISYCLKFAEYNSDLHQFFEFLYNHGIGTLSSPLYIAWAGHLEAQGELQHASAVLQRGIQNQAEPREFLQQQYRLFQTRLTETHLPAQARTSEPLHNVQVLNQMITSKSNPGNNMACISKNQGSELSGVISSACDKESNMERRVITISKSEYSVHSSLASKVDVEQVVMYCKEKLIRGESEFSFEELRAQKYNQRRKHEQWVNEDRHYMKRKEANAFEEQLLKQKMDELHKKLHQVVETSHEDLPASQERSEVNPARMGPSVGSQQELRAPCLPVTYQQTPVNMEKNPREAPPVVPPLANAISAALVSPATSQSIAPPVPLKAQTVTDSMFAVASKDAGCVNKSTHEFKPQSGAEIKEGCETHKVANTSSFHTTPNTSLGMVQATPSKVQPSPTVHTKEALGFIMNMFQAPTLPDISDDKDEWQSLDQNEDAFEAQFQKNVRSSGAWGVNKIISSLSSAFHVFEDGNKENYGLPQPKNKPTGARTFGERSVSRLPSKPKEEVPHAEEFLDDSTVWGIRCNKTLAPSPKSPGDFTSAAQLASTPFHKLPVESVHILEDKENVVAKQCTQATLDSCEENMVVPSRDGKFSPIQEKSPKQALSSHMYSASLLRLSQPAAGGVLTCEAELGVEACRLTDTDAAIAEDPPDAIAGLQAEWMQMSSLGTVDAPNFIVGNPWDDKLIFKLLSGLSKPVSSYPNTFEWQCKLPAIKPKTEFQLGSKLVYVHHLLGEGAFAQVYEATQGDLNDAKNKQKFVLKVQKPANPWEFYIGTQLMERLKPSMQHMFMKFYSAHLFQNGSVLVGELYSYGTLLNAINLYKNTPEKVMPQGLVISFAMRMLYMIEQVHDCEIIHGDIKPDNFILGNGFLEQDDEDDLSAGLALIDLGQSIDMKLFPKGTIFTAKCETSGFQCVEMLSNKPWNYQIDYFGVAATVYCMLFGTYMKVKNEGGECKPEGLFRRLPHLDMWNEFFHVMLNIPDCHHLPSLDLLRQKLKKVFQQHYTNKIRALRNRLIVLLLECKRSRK
Sequence of Hormonally up-regulated neu tumor-associated kinase (Homo sapiens) (P57058 whole entry): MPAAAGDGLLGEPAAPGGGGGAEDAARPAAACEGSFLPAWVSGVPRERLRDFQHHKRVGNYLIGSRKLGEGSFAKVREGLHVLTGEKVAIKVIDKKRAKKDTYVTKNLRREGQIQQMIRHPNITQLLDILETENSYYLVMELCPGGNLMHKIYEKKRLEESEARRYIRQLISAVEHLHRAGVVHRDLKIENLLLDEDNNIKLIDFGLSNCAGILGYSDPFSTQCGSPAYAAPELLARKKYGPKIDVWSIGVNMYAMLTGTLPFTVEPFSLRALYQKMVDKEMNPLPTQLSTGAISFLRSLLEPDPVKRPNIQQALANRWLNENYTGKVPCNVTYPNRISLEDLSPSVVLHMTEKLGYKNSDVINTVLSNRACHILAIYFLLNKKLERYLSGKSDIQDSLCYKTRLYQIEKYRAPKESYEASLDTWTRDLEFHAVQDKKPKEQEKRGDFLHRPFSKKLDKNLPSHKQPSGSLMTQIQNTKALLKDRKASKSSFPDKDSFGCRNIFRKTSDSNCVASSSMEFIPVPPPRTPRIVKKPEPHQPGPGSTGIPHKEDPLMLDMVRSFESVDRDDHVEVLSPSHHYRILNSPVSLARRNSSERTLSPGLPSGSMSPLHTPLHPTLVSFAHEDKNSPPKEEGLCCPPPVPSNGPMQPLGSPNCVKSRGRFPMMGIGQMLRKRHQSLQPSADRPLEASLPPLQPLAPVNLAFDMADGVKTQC
Sequence of Phosphatidylinositol 5-phosphate 4-kinase type-2 beta (Homo sapiens) (P78356 whole entry): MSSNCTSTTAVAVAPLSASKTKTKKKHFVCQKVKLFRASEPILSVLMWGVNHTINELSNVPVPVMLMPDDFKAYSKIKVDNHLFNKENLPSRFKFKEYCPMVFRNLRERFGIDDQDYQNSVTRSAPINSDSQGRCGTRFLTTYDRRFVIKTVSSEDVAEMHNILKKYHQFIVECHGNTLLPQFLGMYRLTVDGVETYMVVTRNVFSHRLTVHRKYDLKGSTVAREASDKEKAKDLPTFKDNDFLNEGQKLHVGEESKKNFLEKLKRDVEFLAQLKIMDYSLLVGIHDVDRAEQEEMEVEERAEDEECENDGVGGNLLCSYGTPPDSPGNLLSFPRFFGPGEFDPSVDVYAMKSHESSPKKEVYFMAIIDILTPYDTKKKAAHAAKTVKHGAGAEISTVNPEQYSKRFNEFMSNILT

## CCC(=O)N[C@@H]1CC[C@H](C(=O)N(C)c2ccc(-c3nc4ccccc4o3)cc2)C1 [BI 99990]
[1]
  residual activity: 100%
[2]
  residual activity: 51%
[3]
  residual activity: 100%
[4]
  residual activity: 100%
[5]
  residual activity: 96%
[6]
  residual activity: 89%
[7]
  residual activity: 100%
[8]
  residual activity: 100%
[9]
  residual activity: 100%
[10]
  residual activity: 82%
[11]
  residual activity: 100%
[12]
  residual activity: 100%
[13]
  residual activity: 100%
[14]
  residual activity: 45%
[15]
  residual activity: 87%
[16]
  residual activity: 100%
[17]
  residual activity: 100%
[18]
  residual activity: 90%
[19]
  residual activity: 100%
[20]
  residual activity: 100%
[21]
  residual activity: 87%
[22]
  residual activity: 100%
[23]
  residual activity: 77%
[24]
  residual activity: 100%
[25]
  residual activity: 100%
[26]
  residual activity: 100%
[27]
  residual activity: 100%
[28]
  residual activity: 100%
[29]
  residual activity: 96%
[30]
  residual activity: 89%
[31]
  residual activity: 100%
[32]
  residual activity: 100%
[33]
  residual activity: 92%
[34]
  residual activity: 100%
[35]
  residual activity: 82%
[36]
  residual activity: 100%
[37]
  residual activity: 100%
[38]
  residual activity: 83%
[39]
  residual activity: 100%
[40]
  residual activity: 89%
[41]
  residual activity: 100%
[42]
  residual activity: 76%
[43]
  residual activity: 100%
[44]
  residual activity: 100%
[45]
  residual activity: 100%

## CCC(=O)N[C@H]1CC[C@@H](C(=O)N(C)c2ccc(-c3nc4ccccc4o3)cc2)C1 [BI 99179]
[1]
  residual activity: 88%
[2]
  residual activity: 100%
[3]
  residual activity: 76%
[4]
  residual activity: 98%
[5]
  residual activity: 100%
[6]
  residual activity: 74%
[7]
  residual activity: 100%
[8]
  residual activity: 100%
[9]
  residual activity: 100%
[10]
  residual activity: 100%
[11]
  residual activity: 100%
[12]
  residual activity: 100%
[13]
  residual activity: 100%
[14]
  residual activity: 54%
[15]
  residual activity: 80%
[16]
  residual activity: 98%
[17]
  residual activity: 43%
[18]
  residual activity: 100%
[19]
  residual activity: 100%
[20]
  residual activity: 100%
[21]
  residual activity: 97%
[22]
  residual activity: 98%
[23]
  residual activity: 90%
[24]
  residual activity: 100%
[25]
  residual activity: 100%
[26]
  residual activity: 92%
[27]
  residual activity: 100%
[28]
  residual activity: 100%
[29]
  residual activity: 88%
[30]
  residual activity: 76%
[31]
  residual activity: 100%
[32]
  residual activity: 99%
[33]
  residual activity: 86%
[34]
  residual activity: 100%
[35]
  residual activity: 82%
[36]
  residual activity: 94%
[37]
  residual activity: 100%
[38]
  residual activity: 100%
[39]
  residual activity: 100%
[40]
  residual activity: 78%
[41]
  residual activity: 100%
[42]
  residual activity: 84%
[43]
  residual activity: 85%
[44]
  residual activity: 85%
[45]
  residual activity: 100%
